Residues, ends and D or L forms follow the SMILES beside them. *: point of attachment. Cbz = O=C(OCc1ccccc1)*
Assays:
[1] = system: IFN pathway; experiment: effect on IFN pathway (FIG. 13); format: cell-based
[2] = system: ZFP91, Aiolos; experiment: Western blot of ZFP91 and Aiolos in OCI-LY10 cells; format: cell-based; settings: for levels of ZFP91 and Aiolos: 6 hrs, 100 mM thalidomide, 10 mM lenalidomide, 1 mM pomalidomide, 1 μM or 10 μM Compound A, 100 nM Compound B, FIG. 17A
Description: (§1) Cells were harvested with RIPA buffer, and proteins from cell lysates were separated by 10% sodium dodecyl sulfate polyacrylamide (SDS-PAGE) gel electrophoresis (Bio-Rad), and transferred to PVDF membranes (Invitrogen). Immunoblots were probed with antibodies recognizing Aiolos (9-9-7; Celgene), CK1α(Abcam), GSPT1 (Sigma), ZFP91 (LSBio) and β-actin (Li-Cor). Signals were detected with a Li-Cor Odyssey imager.
Immunoblots were probed with antibodies recognizing Aiolos (9-9-7; Celgene), GSPT1 (Sigma), ZFP91 (LSBio) and β-actin (Li-Cor). Signals were detected with a Li-Cor Odyssey imager.
as §1, with “OCI-LY10 cells treated with DMSO or various drugs for 6 hrs. Cells” for “Cells”, “buffer” for “buffer,”, “recognizing:” for “recognizing”
OCI-LY10 cells were then treated with DMSO or various drugs for 6 hrs. […] Cells were harvested with RIPA buffer and Proteins from cell lysates were separated by 10% sodium dodecyl sulfate polyacrylamide (SDS-PAGE) gel electrophoresis (Bio-Rad), and transferred to PVDF membranes (Invitrogen). Immunoblots were probed with antibodies recognizing: Aiolos (9-9-7; Celgene), ZFP91 (LSBio), ZNF198 (LSBio) and β-actin (Li-Cor). Signals were detected with a Li-Cor™ Odyssey imager.
OCI-LY10 cells stably transduced with shCRBN 11 were induced for 48 hrs with either 0 or 10 ng/ml of doxycycline. […] Where MLN4924 treatments were present, MLN4924 was pre-incubated for 1 hr prior to drug treatment. Cells were harvested with RIPA buffer and Proteins from cell lysates were separated by 10% sodium dodecyl sulfate polyacrylamide (SDS-PAGE) gel electrophoresis (Bio-Rad), and transferred to PVDF membranes (Invitrogen). Immunoblots were probed with antibodies recognizing: CRBN-65, Aiolos (9-9-7; Celgene), Ikaros (Millipore), ZFP91 (LSBio) and β-actin (Li-Cor). Signals were detected with a Li-Cor Odyssey imager.

[3] = system: Aiolos, Ikaros, ZFP91; experiment: Western blot in myeloma, lymphoma and primary B cells; format: cell-based; settings: U266, DF15, RPMI8226, OCI-LY10, WSU-DLCL2, WSU-DLCL2 Compound A resistant, primary B cells; 8 hours
Method: Multiple myeloma cells (U266, DF15, RPMI8226), diffuse large B cell lymphoma cells (OCI-LY10, WSU-DLCL2, WSU-DLCL2 Compound A resistant), and primary B cells were treated with DMSO, […] or […] for 8 hours. Cells were harvested and were treated in cell lysis buffer to generate cell lysates. Proteins from cell lysate were separated by gel electrophoresis (10% SDS-PAGE) and transferred to nitrocellulose membranes. Immunoblots were then probed with antibodies recognizing Aiolos, CRBN, Ikaros, ZFP91 (LSBio), IRF4, IRF7, Myc, and β-actin (Li-Cor).

[4] = system: Aiolos, Ikaros, ZFP91; experiment: CRBN dependence of ZFP91 reduction in U266 cells, Western blot; format: cell-based; settings: for destruction of Aiolos, Ikaros, and ZFP91 (CRBN dependent pathway): 6 hour; for compound-induced reduction of Aiolos, Ikaros, and ZFP91 after inhibitor pretreatment: 10 mM MLN4924 or MG132 for 1 hr, then compounds 6 hr
Method: U266 cells were transduced with inducible shRNA constructs targeting CRBN or targeting luciferase as control. Cells were grown in the presence or in the absence of 10 ng/ml Doxycycline, and in the presence or in the absence of 1 μM pomalidomide. Cells were harvested and were treated in cell lysis buffer to generate cell lysates. Proteins from cell lysate were separated by gel electrophoresis and transferred to nitrocellulose membranes. Immunoblots were then probed with antibodies recognizing Aiolos, CRBN, Ikaros, ZFP91, IRF4, IFIT1, IFIT3, P-STAT1, and β-actin (Li-Cor).
Cells were harvested, and lysates were run on 10% SDS-PAGE and immunoblotted with the appropriate antibodies.
MG132 activates c-Jun N-terminal kinase (JNK1), which initiates apoptosis. […] MLN4924 is a NAE1 inhibitor that blocks the activity of Cullin Ring Ligases (CRLs), such as CRL4^CRBN. […] Cells were harvested and lysates were run on 10% SDS-PAGE, transferred to nitrocellulose and immunoblotted with the corresponding antibodies.

[5] = system: CSNK1A1 (CK1α), Ikaros; experiment: MG-132, MLN-4924 or Compound A pre-treatment, Western analysis in HNT-34 cells; format: cell-based; settings: for LEN-mediated CK1α reduction after inhibitor pretreatment: FIG. 27B
[6] = system: NF-κB activation; settings: cited from earlier work
[7] = system: TMD8 (ABC) or Karpas 422 (GCB) cells; experiment: competition with lenalidomide for CRBN, 3H-thymidine proliferation; format: cell-based; settings: TMD8 or Karpas 422; co-treatment with 10 μM lenalidomide; competition of binding to the CRBN complex

## Nc1cccc2c1C(=O)N(C1CCC(=O)NC1=O)C2=O (stereo not shown) [pomalidomide]
[1]; FIG. 13A
  IFIT1, IFIT3, DDX58, XAF1, IFIH1, and OAS3 protein expression: upregulates
[1]; FIG. 13B
  DDX58, IFI27, IFIT1, IFIT3, DDX58, and XAF1 gene expression: upregulates
[1]; FIG. 13C
  ISG15 and OAS3 gene expression: upregulates
[1]; FIG. 13E
  IRF changes: induces
[1]; FIG. 13F
  IFIT1 and IFIT3 protein expression: upregulates
  IKKE protein level: reduces
  TBK1 phosphorylation (TBK1-PO4): upregulates
[1]; FIG. 13G
  levels of STAT or phosphorylated STAT: induces changes
[2]; OCI-LY10
  levels of ZFP91 and Aiolos: reduced
[3]
  levels of Aiolos, Ikaros, and ZFP91: reduced
[4]; 1 μM pomalidomide, 10 ng/ml Doxycycline
  pomalidomide induced reductions of Aiolos, Ikaros, and ZFP91 when CRBN knocked down by shRNA: blocked
[4]
  destruction of Aiolos, Ikaros, and ZFP91 (CRBN dependent pathway): induced

## CC(C)C[C@@H](C=O)NC(=O)[C@H](CC(C)C)NC(=O)[C@H](CC(C)C)NC(=O)OCc1ccccc1 [MG132] (Cbz-Leu-Leu-Leu-aldehyde)
[4]
  compound-induced reduction of Aiolos, Ikaros, and ZFP91 after inhibitor pretreatment: blocked
[5]; 3 μM or 10 μM MG-132 pre-treatment 30 min
  CSNK1A1 protein levels in the presence of lenalidomide: stabilized
[5]
  LEN-mediated CK1α reduction after inhibitor pretreatment: abrogated
[6]
  IC50: 3000 nM

## O=C1CCC(N2C(=O)c3ccccc3C2=O)C(=O)N1 (stereo not shown) [thalidomide]
[2]; OCI-LY10
  levels of ZFP91 and Aiolos: reduced
[4]
  destruction of Aiolos, Ikaros, and ZFP91 (CRBN dependent pathway): induced

## Cc1ccc(NC(=O)NCc2ccc3c(c2)CN(C2CCC(=O)NC2=O)C3=O)cc1Cl (stereo not shown) [Compound C, 1-(3-chloro-4-methylphenyl)-3-((2-(2,6-dioxopiperidin-3-yl)-1-oxoisoindolin-5-yl)methyl)urea]
[7]
  anti-proliferative effects on co-treatment with lenalidomide: blocks anti-proliferative effects of Compound C

## O=C1CCC(N2Cc3c(OCc4ccc(CN5CCOCC5)cc4)cccc3C2=O)C(=O)N1 (stereo not shown) [Compound B, 3-[4-(4-Morpholin-4-ylmethyl-benzyloxy)-1-oxo-1,3-dihydro-isoindol-2-yl]-piperidine-2,6-dione]
[2]; OCI-LY10
  levels of ZFP91 and Aiolos: reduced

## NS(=O)(=O)OC[C@@H]1C[C@@H](n2ccc3c(N[C@H]4CCc5ccccc54)ncnc32)C[C@@H]1O [MLN4924]
[2]; OCI-LY10, 10 μM MLN-4924 1 hour prior to drug, FIG. 17C
  level of both Aiolos and ZFP91 in drug-treated cells after MLN-4924 pre-treatment: restored
[2]; OCI-LY10, 10 μM MLN-4924 pretreatment 1 hour, FIG. 14B
  Aiolos and ZFP91 degradation in response to Compound A: blocked
[2]; OCI-LY10 shCRBN 11, lenalidomide or Compound A 6 hours, MLN4924 1 hr pre-incubation, FIG. 17D
  level of both Aiolos and ZFP91 in drug-treated cells after MLN-4924 pre-treatment: restored
[4]
  compound-induced reduction of Aiolos, Ikaros, and ZFP91 after inhibitor pretreatment: blocked
[5]
  LEN-mediated CK1α reduction after inhibitor pretreatment: abrogated
